Test results reported in paper PMC5578959, “Selective LRRK2 kinase inhibition reduces phosphorylation of endogenous Rab10 and Rab12 in human peripheral mononuclear blood cells” (Scientific Reports, 2017).

Assays:
Assay in all cases: KiNativ profiling in human PBMCs
Assay type in all cases: binding
AKT2,AKT3 = conditions: ATP Loop
Experimental: (§1) Compounds were shipped to ActivX Technologies (San Diego, US) where LRRK2 target engagement and broad kinase profiling was performed using KiNativ™ procedures. Live cell treatment of human peripheral blood mononuclear cells (PBMCs) at two compound concentrations (1 µM and 0.1 µM) were used to evaluate and compare in vitro target engagement and kinase selectivity, respectively (see Supplementary File 1).

ARAF = test system: T1, ARAF; conditions: Lys2
T1 construct: purchased ActivX Technologies (KiNativ)
Experimental: as §1

CDK2 = test system: T2, CDK2
T2 construct: purchased ActivX Technologies (KiNativ)
Experimental: as §1

CDK5 = test system: T3, CDK5
T3 construct: purchased ActivX Technologies (KiNativ)
Experimental: as §1

CK1g2 = test system: T4, CK1g2; conditions: Lys2
T4 construct: purchased ActivX Technologies (KiNativ)
Experimental: as §1

CaMK1a = test system: T5, CaMK1a; conditions: Lys1
T5 construct: purchased ActivX Technologies (KiNativ)
Experimental: as §1

[1] = test system: CaMK2a,CaMK2b,CaMK2d,CaMK2g; conditions: Lys2
Experimental: as §1

Erk5 = test system: T6, Erk5; conditions: Lys2
T6 construct: purchased ActivX Technologies (KiNativ)
Experimental: as §1

FGR = test system: T7, FGR; conditions: Activation Loop
T7 construct: purchased ActivX Technologies (KiNativ)
Experimental: as §1

GCK = test system: T8, GCK
T8 construct: purchased ActivX Technologies (KiNativ)
Experimental: as §1

GSK3B = test system: T9, GSK3B; conditions: Lys2
T9 construct: purchased ActivX Technologies (KiNativ)
Experimental: as §1

IKKa = test system: T10, IKKa; conditions: Lys2
T10 construct: purchased ActivX Technologies (KiNativ)
Experimental: as §1

IRE1 = test system: T11, IRE1; conditions: Lys2
T11 construct: purchased ActivX Technologies (KiNativ)
Experimental: as §1

JAK3 domain2 = test system: T12, JAK3 domain2
T12 construct: JAK3 domain2; purchased ActivX Technologies (KiNativ)
Experimental: as §1

MAP2K5 = test system: T13, MAP2K5; conditions: Lys2
T13 construct: purchased ActivX Technologies (KiNativ)
Experimental: as §1

MAP3K15,MAP3K5,MAP3K6 = conditions: Lys1
Experimental: as §1

MAP3K6 = test system: T14, MAP3K6; conditions: Lys2
T14 construct: purchased ActivX Technologies (KiNativ)
Experimental: as §1

MLK3 = test system: T15, MLK3; conditions: Lys2
T15 construct: purchased ActivX Technologies (KiNativ)
Experimental: as §1

MSK2 domain1 = test system: T16, MSK2 domain1; conditions: Lys2
T16 construct: MSK2 domain1; purchased ActivX Technologies (KiNativ)
Experimental: as §1

MST1,MST2 = conditions: Lys2
Experimental: as §1

MST1 = test system: T17, MST1; conditions: Lys1
T17 construct: purchased ActivX Technologies (KiNativ)
Experimental: as §1

MST2 = test system: T18, MST2; conditions: 1µM; Lys1
T18 construct: purchased ActivX Technologies (KiNativ)
Experimental: as §1

MST3 = test system: T19, MST3; conditions: Lys2
T19 construct: purchased ActivX Technologies (KiNativ)
Experimental: as §1

NDR2 = test system: T20, NDR2
T20 construct: purchased ActivX Technologies (KiNativ)
Experimental: as §1

PKD2 = test system: T21, PKD2; conditions: Lys1
T21 construct: purchased ActivX Technologies (KiNativ)
Experimental: as §1

PKN1 = test system: T22, PKN1; conditions: Lys1
T22 construct: purchased ActivX Technologies (KiNativ)
Experimental: as §1

PKR = test system: T23, PKR
T23 construct: purchased ActivX Technologies (KiNativ)
Experimental: as §1

PLK1 = test system: T24, PLK1; conditions: Lys1
T24 construct: purchased ActivX Technologies (KiNativ)
Experimental: as §1

RSK2 domain1 = test system: T25, RSK2 domain1
T25 construct: RSK2 domain1; purchased ActivX Technologies (KiNativ)
Experimental: as §1

RSK3 domain1 = test system: T26, RSK3 domain1; conditions: Lys2
T26 construct: RSK3 domain1; purchased ActivX Technologies (KiNativ)
Experimental: as §1

SGK3 = test system: T27, SGK3; conditions: Lys2
T27 construct: purchased ActivX Technologies (KiNativ)
Experimental: as §1

SNRK = test system: T28, SNRK; conditions: Lys2
T28 construct: purchased ActivX Technologies (KiNativ)
Experimental: as §1

TAO1,TAO3 = conditions: Lys2
Experimental: as §1

TAO2 = test system: T29, TAO2; conditions: Lys2
T29 construct: purchased ActivX Technologies (KiNativ)
Experimental: as §1

TBK1 = test system: T30, TBK1; conditions: Lys1
T30 construct: purchased ActivX Technologies (KiNativ)
Experimental: as §1

Wnk1,Wnk2,Wnk3 = conditions: Lys2
Experimental: as §1

Structure (SMILES): Cc1cccc(-c2cc(Nc3ccn(C)n3)nc3[nH]cc(C#N)c23)c1 [Lu AF58786]
- Inhibition (AKT2,AKT3; 0.1µM): -0.7%
- Inhibition (AKT2,AKT3; 1µM): -7.3%
- Inhibition (ARAF; 0.1µM): -4.9%
- Inhibition (ARAF; 1µM): -4.5%
- Inhibition (CDK2; 0.1µM, Lys1): 5.0%
- Inhibition (CDK2; 0.1µM, Lys2): 7.1%
- Inhibition (CDK2; 1µM, Lys1): 9.2%
- Inhibition (CDK2; 1µM, Lys2): 5.2%
- Inhibition (CDK5; 0.1µM, Lys1): 15.8%
- Inhibition (CDK5; 0.1µM, Lys2): 2.3%
- Inhibition (CDK5; 1µM, Lys1): 17.6%
- Inhibition (CDK5; 1µM, Lys2): 2.5%
- Inhibition (CK1g2; 0.1µM): 5.2%
- Inhibition (CK1g2; 1µM): -0.12%
- Inhibition (CaMK1a; 0.1µM): 11.0%
- Inhibition (CaMK1a; 1µM): -3.0%
- Inhibition ([1]; 0.1µM): -12.1%
- Inhibition ([1]; 1µM): -1.0%
- Inhibition (Erk5; 0.1µM): 2.1%
- Inhibition (Erk5; 1µM): 10.9%
- Inhibition (FGR; 0.1µM): 11.4%
- Inhibition (FGR; 1µM): 5.2%
- Inhibition (GCK; 0.1µM, Lys1): 14.1%
- Inhibition (GCK; 0.1µM, Lys2): 16.9%
- Inhibition (GCK; 1µM, Lys1): 5.5%
- Inhibition (GCK; 1µM, Lys2): -3.1%
- Inhibition (GSK3B; 0.1µM): 9.9%
- Inhibition (GSK3B; 1µM): 21.4%
- Inhibition (IKKa; 0.1µM): 9.8%
- Inhibition (IKKa; 1µM): 6.8%
- Inhibition (IRE1; 0.1µM): -7.8%
- Inhibition (IRE1; 1µM): -11.6%
- Inhibition (JAK3 domain2; 0.1µM, Activation Loop): 4.0%
- Inhibition (JAK3 domain2; 0.1µM, Lys1): 12.9%
- Inhibition (JAK3 domain2; 1µM, Activation Loop): 52.9%
- Inhibition (JAK3 domain2; 1µM, Lys1): 20.6%
- Inhibition (MAP2K5; 0.1µM): -0.318%
- Inhibition (MAP2K5; 1µM): 17.4%
- Inhibition (MAP3K15,MAP3K5,MAP3K6; 0.1µM): 12.0%
- Inhibition (MAP3K15,MAP3K5,MAP3K6; 1µM): 11.6%
- Inhibition (MAP3K6; 0.1µM): 31.4%
- Inhibition (MAP3K6; 1µM): 4.4%
- Inhibition (MLK3; 0.1µM): 1.5%
- Inhibition (MLK3; 1µM): 8.8%
- Inhibition (MSK2 domain1; 0.1µM): 28.3%
- Inhibition (MSK2 domain1; 1µM): 19.0%
- Inhibition (MST1,MST2; 0.1µM): 6.3%
- Inhibition (MST1,MST2; 1µM): 4.8%
- Inhibition (MST1; 0.1µM): 26.2%
- Inhibition (MST1; 1µM): 19.0%
- Inhibition (MST2): 11.8%
- Inhibition (MST3; 0.1µM): 12.8%
- Inhibition (MST3; 1µM): 1.2%
- Inhibition (NDR2; 0.1µM, Lys1): -14.6%
- Inhibition (NDR2; 0.1µM, Lys2): 10.7%
- Inhibition (NDR2; 1µM, Lys1): -18.5%
- Inhibition (NDR2; 1µM, Lys2): 1.3%
- Inhibition (PKD2; 0.1µM): 14.5%
- Inhibition (PKD2; 1µM): 15.3%
- Inhibition (PKN1; 0.1µM): 18.4%
- Inhibition (PKN1; 1µM): 13.6%
- Inhibition (PKR; 0.1µM, Activation Loop): 6.9%
- Inhibition (PKR; 0.1µM, Lys2): 5.1%
- Inhibition (PKR; 1µM, Activation Loop): -2.5%
- Inhibition (PKR; 1µM, Lys2): 4.5%
- Inhibition (PLK1; 0.1µM): -7.7%
- Inhibition (PLK1; 1µM): -19.7%
- Inhibition (RSK2 domain1; 0.1µM, ATP Loop): 26.3%
- Inhibition (RSK2 domain1; 0.1µM, Activation Loop): 16.6%
- Inhibition (RSK2 domain1; 0.1µM, Lys2): 1.6%
- Inhibition (RSK2 domain1; 1µM, ATP Loop): 13.9%
- Inhibition (RSK2 domain1; 1µM, Activation Loop): 32.7%
- Inhibition (RSK2 domain1; 1µM, Lys2): 27.1%
- Inhibition (RSK3 domain1; 0.1µM): 12.9%
- Inhibition (RSK3 domain1; 1µM): 26.9%
- Inhibition (SGK3; 0.1µM): -8.9%
- Inhibition (SGK3; 1µM): 13.9%
- Inhibition (SNRK; 0.1µM): 22.5%
- Inhibition (SNRK; 1µM): 15.1%
- Inhibition (TAO1,TAO3; 0.1µM): 27.6%
- Inhibition (TAO1,TAO3; 1µM): 15.9%
- Inhibition (TAO2; 0.1µM): 17.3%
- Inhibition (TAO2; 1µM): 18.3%
- Inhibition (TBK1; 0.1µM): 10.1%
- Inhibition (TBK1; 1µM): 26.3%
- Inhibition (Wnk1,Wnk2,Wnk3; 0.1µM): 10.5%
- Inhibition (Wnk1,Wnk2,Wnk3; 1µM): -5.4%
